In patent US6352988B2, “Indane or dihydroindole derivatives” (H. Lundbeck A/S, priority 1996, dated 2002):

biological target: T1, dopamine D4 receptors in cloned human dopamine receptor subtype 4.2 membranes (Homo sapiens, UniProt P21917, DEL271-302); assay: 3H-YM-09151-2 binding (affinity for dopamine D4 receptors); details: 3H-YM-09151-2, cloned human D4.2 membranes; * means that the test result is preliminary; read-out: D4-bind. IC50
T1 sequence (P21917 with tags, fused parts or gaps DEL271-302): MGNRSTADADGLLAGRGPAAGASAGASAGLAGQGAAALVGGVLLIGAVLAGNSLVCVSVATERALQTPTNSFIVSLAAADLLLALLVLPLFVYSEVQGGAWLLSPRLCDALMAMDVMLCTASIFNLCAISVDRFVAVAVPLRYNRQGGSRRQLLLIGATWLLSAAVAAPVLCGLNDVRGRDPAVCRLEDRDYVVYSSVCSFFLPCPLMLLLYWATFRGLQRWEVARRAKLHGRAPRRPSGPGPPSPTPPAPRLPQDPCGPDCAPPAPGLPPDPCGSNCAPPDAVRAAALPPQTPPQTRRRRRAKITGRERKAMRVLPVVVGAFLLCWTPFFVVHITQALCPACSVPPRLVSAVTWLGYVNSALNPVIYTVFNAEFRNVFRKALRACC
Method: By this method the inhibition by drugs of the binding of the dopamine D4 antagonist ^3H-YM-09151-2 to dopamine D4 receptors in cloned human dopamine receptor subtype 4.2 membranes is determined in vitro. Accordingly, this is a test for affinity for dopamine D4 receptors. The test is performed using a preparation of cloned dopamine D4 cell membranes CRM-016®, Dupharma A/S, Denmark, in accordance with the product specifications.

Q: How did the IC50 turn out when `CC(=O)N1CC(CCN2CC=C(c3c[nH]c4cc5c(cc34)OCO5)CC2)c2ccccc21` (stereo not drawn) [Compound 20h, 3-[1-[2-(1-Acetyl-2,3-dihydro-1H-indol-3-yl)ethyl]-1,2,3,6-tetrahydropyridin-4-yl]-5,6-methylenedioxy-1H-indole] was run?
A: The IC50 was 30 nM.

Q: Which IC50 does the source give for `Clc1ccc2c(C3=CCN(CC4CCc5ccc(Br)cc54)CC3)c[nH]c2c1` (stereo not drawn) [Compound 6e, 6-Chloro-3-[1-(6-bromo-1-indanylmethyl)-1,2,3,6-tetrahydropyridin-4-yl]-1H-indole] here?
A: Its IC50 is 84 nM.

Q: How did the IC50 turn out when `C1=C(c2c[nH]c3ccccc23)CCN(CC2CCc3ccccc32)C1` (stereo not drawn) [Compound 5a, 3-[1-(1-Indanylmethyl)-1,2,3,6-tetrahydropyridin-4-yl]-1H-indole] was run?
A: The IC50 was 3.5 nM.

Q: `Clc1ccc2c(C3=CCN(CC4CCc5ccc6[nH]ccc6c54)CC3)c[nH]c2c1` (stereo not drawn) [Compound 16a, 8-[4-(6-Chloro-1H-indol-3-yl)-1,2,3,6-tetrahydropyridin-1-ylmethyl]-3,6,7,8-tetrahydro-cyclopent[e]indole] was tested. Which IC50 did it give?
A: Its IC50 is 6.2 nM.

Q: How did the IC50 turn out when `CC(=O)N1CC(CCN2CC=C(c3c[nH]c4cc(Cl)ccc34)CC2)c2ccccc21` (stereo not drawn) [Compound 20a, 3-[1-[2-(1-Acetyl-2,3-dihydro-1H-indol-3-yl)ethyl]-1,2,3,6-tetrahydropyridin-4-yl]-6-chloro-1H-indole] was run?
A: The IC50 was 3.1 nM.

Q: For `Clc1cccc2c(C3=CCN(CC4Cc5ccccc5C4)CC3)c[nH]c12` [Compound 11c, 7-Chloro-3-[1-(indan-2-yl)methyl-1,2,3,6-tetrahydropyridin-4-yl]-1H-indole], which IC50 is on record?
A: The IC50 was 3.8 nM.

Q: With `Clc1ccc2c(ccn2C2CCN(CCC3Cc4ccccc4C3)CC2)c1` [Compound 29a, 5-Chloro-1-[1-[2-(indan-2-yl)ethyl]piperidin-4-yl]-1H-indole] as the molecule, how does the IC50 read?
A: Its IC50 is 6.9 nM.

Q: With `Fc1ccc2[nH]cc(C3CCN(CCCCC4CCc5ccccc54)CC3)c2c1` (stereo not drawn) [Compound 8e, 5-fluoro-3-[1-[4-(indan-1-yl)butan-1-yl]-piperidin-4-yl]-1H-indole] as the molecule, how does the IC50 read?
A: The IC50 was 8.3 nM.

Q: How did the IC50 turn out when `Clc1ccc2c(C3=CCN(CCC4CNc5ccccc54)CC3)c[nH]c2c1` (stereo not drawn) [Compound 30a, 6-Chloro-3-[1-[2-(2,3-dihydro-1H-indol-3-yl)ethyl]-1,2,3,6-tetrahydropyridin-4-yl]-1H-indole] was run?
A: Its IC50 is 9.9 nM.

Q: `Clc1ccc2c(C3=CCN(CC4Cc5ccccc5C4)CC3)c[nH]c2c1` [Compound 11a, 6-Chloro-3-[1-(indan-2-yl)methyl-1,2,3,6-tetrahydropyridin-4-yl]-1H-indole] was tested. Which IC50 did it give?
A: The IC50 was 2.8 nM.

Q: With `CC(=O)N1CC(CCN2CCC(c3c[nH]c4cc(Cl)ccc34)CC2)c2ccccc21` (stereo not drawn) [Compound 20b, 3-[1-[2-(1-Acetyl-2,3-dihydro-1H-indol-3-yl)ethyl]piperidin-4-yl]-6-chloro-1H-indole] as the molecule, how does the IC50 read?
A: The IC50 was 6.7 nM.

Q: `c1ccc2c(c1)CC(CCN1CCN(c3ccc4[nH]ccc4c3)CC1)C2` [Compound 25b, 5-[4-[2-(Indan-2-yl)ethyl]piperazin-1-yl]-1H-indole] was tested. Which IC50 did it give?
A: Its IC50 is 5.3 nM.

Q: `Clc1ccc2c(C3=CCN(CCCC4CCc5ccccc54)CC3)c[nH]c2c1` (stereo not drawn) [Compound 8g, 6-Chloro-3-[1-[3-(indan-1-yl)propan-1-yl]-1,2,3,6-tetrahydropyridin-4-yl]-1H-indole] was tested. Which IC50 did it give?
A: Its IC50 is 14 nM.

Q: How did the IC50 turn out when `CC(=O)Nc1cccc2c1CC(CN1CC=C(c3c[nH]c4cc(Cl)ccc34)CC1)C2` (stereo not drawn) [Compound 18a, 6-Chloro-3-[1-(4-acetylaminoindan-2-yl)methyl-1,2,3,6-tetrahydropyridine-4-yl]-1H-indole] was run?
A: The IC50 was 7.5 nM.

Q: With `CC(=O)N1CC(CCN2CC=C(c3c[nH]c4c(Cl)cccc34)CC2)c2ccccc21` (stereo not drawn) [Compound 20f, 3-[1-[2-(1-Acetyl-2,3-dihydro-1H-indol-3-yl)ethyl]-1,2,3,6-tetrahydropyridin-4-yl]-7-chloro-1H-indole] as the molecule, how does the IC50 read?
A: The IC50 was 3.2 nM.

Q: With `CC(=O)N1CC(CCN2CC=C(c3c[nH]c4cc(Cl)ccc34)CC2)c2cc(C)ccc21` (stereo not drawn) [Compound 20m, 3-[1-[2-(1-Acetyl-5-methyl-2,3-dihydro-1H-indol-3-yl)ethyl]-1,2,3,6-tetrahydropyridin-4-yl]-6-chloro-1H-indole] as the molecule, how does the IC50 read?
A: Its IC50 is 8.4 nM.

Q: For `CC(=O)Nc1cccc2c1CC(CN1CCC(c3c[nH]c4cc(Cl)ccc34)CC1)C2` (stereo not drawn) [Compound 18b, 6-Chloro-3-[1-(4-acetylaminoindan-2-yl)methylpiperidin-4-yl]-1H-indole], which IC50 is on record?
A: The IC50 was 4.3 nM.

Q: How did the IC50 turn out when `CC(C)(C)OC(=O)N1CC(CCN2CC=C(c3c[nH]c4cc(Cl)ccc34)CC2)c2ccccc21` (stereo not drawn) [Compound 20i, 3-[1-[2-(1-tert-Butoxycarbonyl-2,3-dihydro-1H-indol-3-yl)ethyl]-1,2,3,6-tetrahydropyridin-4-yl]-6-chloro-1H-indole] was run?
A: Its IC50 is 2.9 nM.

Q: With `Clc1ccc2c(C3CCN(CCCCC4CCc5ccccc54)CC3)c[nH]c2c1` (stereo not drawn) [Compound 8f, 6-Chloro-3-[1-[4-(indan-1-yl)butan-1-yl)-piperidin-4-yl]-1H-indole] as the molecule, how does the IC50 read?
A: Its IC50 is 12 nM.

Q: For `Fc1ccc2[nH]cc(C3CCN(CCC4CCc5ccccc54)CC3)c2c1` (stereo not drawn) [Compound 8c, 5-fluoro-3-[1-[2-(indan-1-yl)ethyl]-piperidin-4-yl]-1H-indole], which IC50 is on record?
A: The IC50 was 2.3 nM.

Q: Which IC50 does the source give for `Clc1cccc2c(C3CCN(CC4Cc5ccccc5C4)CC3)c[nH]c12` [Compound 21c, 7-Chloro-3-[1-(indan-2-ylmethyl)piperidin-4-yl]-1H-indole] here?
A: The IC50 was 1.8 nM.

Q: Which IC50 does the source give for `c1ccc2c(c1)CC(CCN1CCN(c3cccc4[nH]ccc34)CC1)C2` [Compound 25a, 4-[4-[2-(Indan-2-yl)ethyl]piperazin-1-yl]-1H-indole] here?
A: Its IC50 is 2.7 nM.

Q: `COc1cccc2c1C(CN1CC=C(c3c[nH]c4cc(Cl)ccc34)CC1)CC2` (stereo not drawn) [Compound 5c, 6-Chloro-3-[1-(7-methoxyindan-1-yl)methyl-1,2,3,6-tetrahydropyridin-4-yl]-1H-indole] was tested. Which IC50 did it give?
A: Its IC50 is 32 nM.

Q: For `COc1ccc2c(c1)C(CN1CC=C(c3c[nH]c4ccccc34)CC1)CC2` (stereo not drawn) [Compound 5d, 3-[1-(6-methoxyindan-1-yl)methyl-1,2,3,6-tetrahydropyridin-4-yl]-1H-indole], which IC50 is on record?
A: The IC50 was 20 nM.

Q: How did the IC50 turn out when `CC(=O)N1CC(CCN2CCN(c3ccc4[nH]ccc4c3)CC2)c2ccccc21` (stereo not drawn) [Compound 20j, 5-[4-[2-(1-Acetyl-2,3-dihydro-1H-indol-3-yl)ethyl]piperazin-1-yl]-1H-indole] was run?
A: Its IC50 is 6.9 nM.

Q: For `CC(=O)Nc1ccc2c(c1)C(CCN1CC=C(c3c[nH]c4cc(Cl)ccc34)CC1)CC2` (stereo not drawn) [Compound 18c], which IC50 is on record?
A: Its IC50 is 41 nM.

Q: With `O=CN1CC(CCN2CCC(c3c[nH]c4cc(Cl)ccc34)CC2)c2ccccc21` (stereo not drawn) [Compound 20d, 6-Chloro-3-[1-[2-(1-formyl-2,3-dihydro-1H-indol-3-yl)ethyl]piperidin-4-yl]-1H-indole] as the molecule, how does the IC50 read?
A: The IC50 was 3 nM.

Q: `Clc1ccc2c(C3CCN(CC4Cc5ccccc5C4)CC3)c[nH]c2c1` [Compound 21a, 6-Chloro-3-[1-(indan-2-ylmethyl)piperidin-4yl]-1H-indole] was tested. Which IC50 did it give?
A: Its IC50 is 0.48 nM.

Q: `O=CN1CC(CCN2CC=C(c3c[nH]c4cc(Cl)ccc34)CC2)c2ccccc21` (stereo not drawn) [Compound 20c, 6-Chloro-3-[1-[2-(1-formyl-2,3-dihydro-1H-indol-3-yl)ethyl]-1,2,3,6-tetrahydropyridin-4yl]-1H-indole] was tested. Which IC50 did it give?
A: Its IC50 is 2.4 nM.

Q: `C1=C(n2ccc3ccccc32)CCN(CCC2Cc3ccccc3C2)C1` [Compound 28b, 1-[1-[2-(Indan-2-yl)ethyl]-1,2,3,6-tetrahydropyridin-4-yl]-1H-indole] was tested. Which IC50 did it give?
A: The IC50 was 14 nM.

Q: With `c1ccc2c(c1)CC(CN1CCN(c3ccc4[nH]ccc4c3)CC1)C2` [Compound 11f, 5-[4-(Indan-2-yl)methylpiperazin-1-yl]-1H-indole] as the molecule, how does the IC50 read?
A: Its IC50 is 1.6 nM.

Q: How did the IC50 turn out when `Clc1ccc2c(C3=CCN(CCCCC4CCc5ccccc54)CC3)c[nH]c2c1` (stereo not drawn) [Compound 8h] was run?
A: The IC50 was 34 nM.

Q: How did the IC50 turn out when `CC(=O)Nc1ccc2c(c1)C(CCCN1CC=C(c3c[nH]c4cc(Cl)ccc34)CC1)CC2` (stereo not drawn) [Compound 18d, 6-Chloro-3-[1-[3-(6-acetylaminoindan-1-yl)propan-1-yl]-1,2,3,6-tetrahydropyridin-4-yl]-1H-indole] was run?
A: Its IC50 is 7.3 nM.

Q: Which IC50 does the source give for `CC(=O)Nc1ccc2c(c1)C(CCCCN1CC=C(c3c[nH]c4cc(Cl)ccc34)CC1)CC2` (stereo not drawn) [Compound 18e, 6-Chloro-3-[1-[4-(6-acetylaminoindan-1-yl)butan-1-yl]-1,2,3,6-tetrahydropyridin-4-yl]-1H-indole] here?
A: Its IC50 is 66 nM.

Q: With `c1ccc2c(c1)CCC2CN1CCC(c2c[nH]c3ccccc23)CC1` (stereo not drawn) [Compound 5b, 3-[1-(1-Indanylmethyl)piperindin-4-yl]-1H-indole] as the molecule, how does the IC50 read?
A: The IC50 was 5 nM.

Q: `CC(=O)N1CC(CCN2CC=C(c3c[nH]c4cc(Cl)ccc34)CC2)c2ccccc21` (single isomer, unassigned; (+)) [Compound 34a] was tested. Which IC50 did it give?
A: Its IC50 is 4 nM.

Q: For `N#Cc1ccc2c(c1)C(CN1CCC(c3c[nH]c4cc(Cl)ccc34)CC1)CC2` (stereo not drawn) [Compound 6b, 6-Chloro-3-[1-(6-cyano-1-indanylmethyl)piperidin-4-yl]-1H-indole], which IC50 is on record?
A: The IC50 was 3.3 nM.

Q: For `CC(=O)Nc1ccc2c(c1)CCC2CN1CC=C(c2c[nH]c3cc(Cl)ccc23)CC1` (stereo not drawn) [Compound 6d, 6-Chloro-3-[1-(5-acetylamino-1-indanylmethyl)-1,2,3,6-tetrahydropyridin-4-yl]-1H-indole], which IC50 is on record?
A: Its IC50 is 30 nM.

Q: With `CC(=O)N1CC(CCCN2CC=C(c3c[nH]c4cc(Cl)ccc34)CC2)c2ccccc21` (stereo not drawn) [Compound 20k, 3-[1-[3-(1-Acetyl-2,3-dihydro-1H-indol-3-yl)propyl]-1,2,3,6-tetrahydropyridin-4-yl]-6-chloro-1H-indole] as the molecule, how does the IC50 read?
A: Its IC50 is 10 nM.
